Measurements reported in PubChem BioAssay (NCI).
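Interpolation was linear, between the two tested concentrations surrounding the appropriate level; five concentrations were tested over 48 hours in 96-well plates. At the GI50, growth is halved. At the TGI there is no net growth.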

Experiments:
Assay in all cases: growth of human tumour cells (NCI), 48 h
M14 melanoma = tested on: M14 melanoma
MDA-MB-435 = tested on: MDA-MB-435
SN12C renal = tested on: SN12C renal
MDA-MB-468 breast = tested on: MDA-MB-468 breast
PC-3 prostate = tested on: PC-3 prostate
BT-549 breast = tested on: BT-549 breast
SF-295 CNS = tested on: SF-295 CNS
SR leukemia = tested on: SR leukemia
HOP-92 NSCLC = tested on: HOP-92 NSCLC
HS 578T breast = tested on: HS 578T breast
A549 NSCLC = tested on: A549 NSCLC
MDA-MB-231 breast = tested on: MDA-MB-231 breast
UO-31 renal = tested on: UO-31 renal
IGROV1 ovarian = tested on: IGROV1 ovarian
SK-MEL-5 melanoma = tested on: SK-MEL-5 melanoma
OVCAR-3 ovarian = tested on: OVCAR-3 ovarian
LOX IMVI melanoma = tested on: LOX IMVI melanoma
RXF 393 renal = tested on: RXF 393 renal
ACHN renal = tested on: ACHN renal
HOP-62 NSCLC = tested on: HOP-62 NSCLC
MALME-3M melanoma = tested on: MALME-3M melanoma
SF-268 CNS = tested on: SF-268 CNS
SK-OV-3 ovarian = tested on: SK-OV-3 ovarian
786-0 renal = tested on: 786-0 renal
HCC-2998 colon = tested on: HCC-2998 colon
RPMI-8226 leukemia = tested on: RPMI-8226 leukemia
MOLT-4 leukemia = tested on: MOLT-4 leukemia
COLO 205 colon = tested on: COLO 205 colon
SK-MEL-2 melanoma = tested on: SK-MEL-2 melanoma
OVCAR-4 ovarian = tested on: OVCAR-4 ovarian
NCI/ADR-RES ovarian = tested on: NCI/ADR-RES ovarian
HT29 colon = tested on: HT29 colon
T-47D breast = tested on: T-47D breast
HCT-116 colon = tested on: HCT-116 colon
EKVX NSCLC = tested on: EKVX NSCLC
KM12 colon = tested on: KM12 colon
OVCAR-5 ovarian = tested on: OVCAR-5 ovarian
CAKI-1 renal = tested on: CAKI-1 renal
NCI-H226 lung = tested on: NCI-H226 lung
UACC-62 melanoma = tested on: UACC-62 melanoma
K-562 leukemia = tested on: K-562 leukemia
SNB-75 CNS = tested on: SNB-75 CNS
SNB-19 CNS = tested on: SNB-19 CNS
NCI-H522 lung = tested on: NCI-H522 lung
HL-60(TB) leukemia = tested on: HL-60(TB) leukemia
U251 CNS = tested on: U251 CNS
TK-10 renal = tested on: TK-10 renal
SK-MEL-28 melanoma = tested on: SK-MEL-28 melanoma
CCRF-CEM leukemia = tested on: CCRF-CEM leukemia
NCI-H23 lung = tested on: NCI-H23 lung
SW-620 colon = tested on: SW-620 colon
NCI-H460 lung = tested on: NCI-H460 lung
DU-145 prostate = tested on: DU-145 prostate
HCT-15 colon = tested on: HCT-15 colon
OVCAR-8 ovarian = tested on: OVCAR-8 ovarian
MCF7 breast = tested on: MCF7 breast
UACC-257 melanoma = tested on: UACC-257 melanoma
A498 renal = tested on: A498 renal
SF-539 CNS = tested on: SF-539 CNS

COc1ccc(N=Nc2c(N)nn3c(-c4cc5cc(Br)ccc5oc4=O)ccnc23)cc1
GI50 (M14 melanoma): 12.5 µM | TGI (M14 melanoma): > 100 µM | GI50 (MDA-MB-435): 7.87 µM | TGI (MDA-MB-435): > 100 µM | GI50 (SN12C renal): 3.21 µM | TGI (SN12C renal): 14.1 µM | GI50 (MDA-MB-468 breast): 1.86 µM | TGI (MDA-MB-468 breast): 6.2 µM | GI50 (PC-3 prostate): 4.56 µM | TGI (PC-3 prostate): 71.5 µM | GI50 (BT-549 breast): 4.38 µM | TGI (BT-549 breast): 14.8 µM | GI50 (SF-295 CNS): 2.7 µM | TGI (SF-295 CNS): 8.53 µM | GI50 (SR leukemia): 99.7 µM | TGI (SR leukemia): > 100 µM | GI50 (HOP-92 NSCLC): 2.48 µM | TGI (HOP-92 NSCLC): 7.25 µM | GI50 (HS 578T breast): 3.08 µM | TGI (HS 578T breast): > 100 µM | GI50 (A549 NSCLC): 3.7 µM | TGI (A549 NSCLC): 16.9 µM | GI50 (MDA-MB-231 breast): 2.9 µM | TGI (MDA-MB-231 breast): 10.1 µM | GI50 (UO-31 renal): 3.33 µM | TGI (UO-31 renal): 15.4 µM | GI50 (IGROV1 ovarian): 6.28 µM | TGI (IGROV1 ovarian): 22.8 µM | GI50 (SK-MEL-5 melanoma): 3.56 µM | TGI (SK-MEL-5 melanoma): 13.6 µM | GI50 (OVCAR-3 ovarian): 3.85 µM | TGI (OVCAR-3 ovarian): > 100 µM | GI50 (LOX IMVI melanoma): 4.72 µM | TGI (LOX IMVI melanoma): 16.4 µM | GI50 (RXF 393 renal): 2.34 µM | TGI (RXF 393 renal): 7 µM | GI50 (ACHN renal): 2.52 µM | TGI (ACHN renal): 7.17 µM | GI50 (HOP-62 NSCLC): 2.09 µM | TGI (HOP-62 NSCLC): 5.21 µM | GI50 (MALME-3M melanoma): 3 µM | TGI (MALME-3M melanoma): 11.6 µM | GI50 (SF-268 CNS): 3.72 µM | TGI (SF-268 CNS): 20 µM | GI50 (SK-OV-3 ovarian): 3.67 µM | TGI (SK-OV-3 ovarian): 10.7 µM | GI50 (786-0 renal): 2.36 µM | TGI (786-0 renal): 5.9 µM | GI50 (HCC-2998 colon): 4.63 µM | TGI (HCC-2998 colon): 23.6 µM | GI50 (RPMI-8226 leukemia): 10.9 µM | TGI (RPMI-8226 leukemia): > 100 µM | GI50 (MOLT-4 leukemia): > 100 µM | TGI (MOLT-4 leukemia): > 100 µM | GI50 (COLO 205 colon): 6.15 µM | TGI (COLO 205 colon): 52.3 µM | GI50 (SK-MEL-2 melanoma): 4.01 µM | TGI (SK-MEL-2 melanoma): 18.2 µM | GI50 (OVCAR-4 ovarian): 3.69 µM | TGI (OVCAR-4 ovarian): 19.3 µM | GI50 (NCI/ADR-RES ovarian): 3.42 µM | TGI (NCI/ADR-RES ovarian): 13.1 µM | GI50 (HT29 colon): 3.51 µM | TGI (HT29 colon): > 100 µM | GI50 (T-47D breast): 3.12 µM | TGI (T-47D breast): 13.5 µM | GI50 (HCT-116 colon): 3.69 µM | TGI (HCT-116 colon): 12.4 µM | GI50 (EKVX NSCLC): 9.79 µM | TGI (EKVX NSCLC): 35.5 µM | GI50 (KM12 colon): 4.17 µM | TGI (KM12 colon): > 100 µM | GI50 (OVCAR-5 ovarian): 4.86 µM | TGI (OVCAR-5 ovarian): 33.8 µM | GI50 (CAKI-1 renal): 3.47 µM | TGI (CAKI-1 renal): 15.5 µM | GI50 (NCI-H226 lung): 3.72 µM | TGI (NCI-H226 lung): 14.5 µM | GI50 (UACC-62 melanoma): 2.98 µM | TGI (UACC-62 melanoma): 12.1 µM | GI50 (K-562 leukemia): 11.1 µM | TGI (K-562 leukemia): > 100 µM | GI50 (SNB-75 CNS): 1.73 µM | TGI (SNB-75 CNS): 5.34 µM | GI50 (SNB-19 CNS): 4.05 µM | TGI (SNB-19 CNS): 16.3 µM | GI50 (NCI-H522 lung): 2.07 µM | TGI (NCI-H522 lung): 6.43 µM | GI50 (HL-60(TB) leukemia): > 100 µM | TGI (HL-60(TB) leukemia): > 100 µM | GI50 (U251 CNS): 1.89 µM | TGI (U251 CNS): 4.24 µM | GI50 (TK-10 renal): 7.89 µM | TGI (TK-10 renal): 24.8 µM | GI50 (SK-MEL-28 melanoma): 4.78 µM | TGI (SK-MEL-28 melanoma): 19 µM | GI50 (CCRF-CEM leukemia): > 100 µM | TGI (CCRF-CEM leukemia): > 100 µM | GI50 (NCI-H23 lung): 2.98 µM | TGI (NCI-H23 lung): 10.1 µM | GI50 (SW-620 colon): 5.86 µM | TGI (SW-620 colon): 59.6 µM | GI50 (NCI-H460 lung): 2.96 µM | TGI (NCI-H460 lung): 11.1 µM | GI50 (DU-145 prostate): 5.43 µM | TGI (DU-145 prostate): > 100 µM | GI50 (HCT-15 colon): 4.63 µM | TGI (HCT-15 colon): 79.8 µM | GI50 (OVCAR-8 ovarian): 2.93 µM | TGI (OVCAR-8 ovarian): 11.1 µM | GI50 (MCF7 breast): 3.5 µM | TGI (MCF7 breast): 16.4 µM | GI50 (UACC-257 melanoma): 7.3 µM | TGI (UACC-257 melanoma): 32 µM | GI50 (A498 renal): 2.64 µM | TGI (A498 renal): 9.09 µM | GI50 (SF-539 CNS): 2.54 µM | TGI (SF-539 CNS): 6.26 µM
